ChEMBL document CHEMBL1201862, “PubChem BioAssay data set” (2004)
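Five compound concentrations were applied to cells in 96-well plates for 48 hours; endpoints were derived by simple linear interpolation of the resulting dose-response curve. At the GI50, growth is halved.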 The source made the active and inactive calls. Cut-off read from the data, not from the text of the source: active = GI50 up to about 1.1 µM and inactive = higher.

Columns and labels:
Experiment in all cases: DTP human tumour cell line panel, 48 h
786-0 = system: 786-0
ACHN = system: ACHN
BT-549 = system: BT-549
CCRF-CEM = system: CCRF-CEM
COLO 205 = system: COLO 205
EKVX = system: EKVX
HCT-15 = system: HCT-15
HL-60 = system: HL-60
MDA-MB-231 = system: MDA-MB-231
MDA-MB-435 = system: MDA-MB-435
MOLT-4 = system: MOLT-4
Malme-3M = system: Malme-3M
OVCAR-4 = system: OVCAR-4
OVCAR-8 = system: OVCAR-8
SF-295 = system: SF-295
SN12C = system: SN12C
SNB-19 = system: SNB-19
T47D = system: T47D
TK-10 = system: TK-10
MDA-N = system: MDA-N

| Structure (SMILES) | GI50 (786-0) | GI50 (ACHN) | GI50 (BT-549) | GI50 (CCRF-CEM) | GI50 (COLO 205) | GI50 (EKVX) | GI50 (HCT-15) [µM] | GI50 (HL-60) | GI50 (MDA-MB-231) | GI50 (MDA-MB-435) | GI50 (MOLT-4) | GI50 (Malme-3M) | GI50 (OVCAR-4) | GI50 (OVCAR-8) | GI50 (SF-295) | GI50 (SN12C) | GI50 (SNB-19) | GI50 (T47D) | GI50 (TK-10) | GI50 (MDA-N) |
| --- | --- | --- | --- | --- | --- | --- | --- | --- | --- | --- | --- | --- | --- | --- | --- | --- | --- | --- | --- | --- |
| O=C(c1ccccc1)c1nc2ccc(Cl)cc2cc1C(Br)Br | 0.17 µM (active) | 0.263 µM (active) | 0.144 µM (active) | 0.395 µM (active) | 0.344 µM (active) | 0.493 µM (active) | 0.31 | 0.222 µM (active) | 0.0685 µM (active) | 0.282 µM (active) | 0.678 µM (active) | 1.6 µM (inactive) | 0.407 µM (active) | 0.242 µM (active) | 0.261 µM (active) | 0.252 µM (active) | 0.425 µM (active) | 0.2 µM (active) | 0.687 µM (active) |  |
| NC1CC2C3CCC2C1C3=O (stereo not drawn) | > 100 µM (inactive) | > 100 µM (inactive) |  | > 100 µM (inactive) | > 100 µM (inactive) | > 100 µM (inactive) | > 100 | > 100 µM (inactive) | > 100 µM (inactive) | > 100 µM (inactive) | > 100 µM (inactive) | > 100 µM (inactive) | > 100 µM (inactive) | > 100 µM (inactive) | > 100 µM (inactive) | > 100 µM (inactive) | > 100 µM (inactive) | > 100 µM (inactive) | > 100 µM (inactive) | > 100 µM (inactive) |
| CC(C)(C)c1cc(C(=O)/C=C/c2cc[nH]n2)cc(C(C)(C)C)c1O | 1.58 µM (inactive) | 1.62 µM (inactive) | 4.83 µM (inactive) | 2.07 µM (inactive) | 2.07 µM (inactive) | 13.4 µM (inactive) | 2.11 | 2.23 µM (inactive) | 1.91 µM (inactive) | 2.77 µM (inactive) | 2.61 µM (inactive) | 7.29 µM (inactive) | 6.4 µM (inactive) | 2.39 µM (inactive) | 13.7 µM (inactive) | 1.85 µM (inactive) | 3.87 µM (inactive) | 1.11 µM (active) | 1.54 µM (inactive) |  |
| CCOC(=O)c1cnc2oc3ccc(O)cc3c2c1C | > 100 µM (inactive) | > 100 µM (inactive) |  | 32.7 µM (inactive) | > 100 µM (inactive) | 35 µM (inactive) | > 100 | > 100 µM (inactive) | > 100 µM (inactive) | > 100 µM (inactive) | 47.4 µM (inactive) | 29.9 µM (inactive) | 33.7 µM (inactive) | 61.8 µM (inactive) | 78.7 µM (inactive) | > 100 µM (inactive) | > 100 µM (inactive) | 38.5 µM (inactive) | 57.4 µM (inactive) | > 100 µM (inactive) |
| COc1ccc(CC2C3=C(CCCC3)CCN2C)cc1 (stereo not drawn) | > 100 µM (inactive) | > 100 µM (inactive) |  | > 100 µM (inactive) | > 100 µM (inactive) | > 100 µM (inactive) | > 100 | 29.4 µM (inactive) | > 100 µM (inactive) | > 100 µM (inactive) | > 100 µM (inactive) | > 100 µM (inactive) | > 100 µM (inactive) | > 100 µM (inactive) | > 100 µM (inactive) | > 100 µM (inactive) | > 100 µM (inactive) | 69.2 µM (inactive) | > 100 µM (inactive) | > 100 µM (inactive) |
| COC(CN(C)C(=S)Nc1cccc2ccccc12)OC | > 10 µM (inactive) | > 10 µM (inactive) |  | > 10 µM (inactive) | > 10 µM (inactive) | > 10 µM (inactive) | > 10 | > 10 µM (inactive) | > 10 µM (inactive) | > 10 µM (inactive) | > 10 µM (inactive) | > 10 µM (inactive) | > 10 µM (inactive) | > 10 µM (inactive) | > 10 µM (inactive) | > 10 µM (inactive) | > 10 µM (inactive) | > 10 µM (inactive) | > 10 µM (inactive) | > 10 µM (inactive) |
| O=C1NN(Cc2ccccc2)C(=O)N2CCC[C@@H]12 | > 100 µM (inactive) | > 100 µM (inactive) |  | > 100 µM (inactive) | > 100 µM (inactive) | > 100 µM (inactive) | > 100 | > 100 µM (inactive) | > 100 µM (inactive) | > 100 µM (inactive) | > 100 µM (inactive) | > 100 µM (inactive) | > 100 µM (inactive) | > 100 µM (inactive) | > 100 µM (inactive) | > 100 µM (inactive) | > 100 µM (inactive) | > 100 µM (inactive) | > 100 µM (inactive) | > 100 µM (inactive) |
